Test results reported in ChEMBL document CHEMBL5518218, “Discovery of Novel PD-L1 Small-Molecular Inhibitors with Potent In Vivo Anti-tumor Immune Activity” (J Med Chem, 2024).
In brackets after ≈: the same amount, converted by molar mass. Activity calls are given as the source filed them. The calls are words filed in the database; no cut-off is given here.

How the values were obtained:
CHO-K1 [1] = assay: Cytotoxicity against […] cells expressing PD-L1 assessed as reduction in cell viability at 50 uM incubated for 6 hrs by CCK-8 assay; format: toxicity, cell-based, Cricetulus griseus; details: chinese hamster, cho-k1, 6 h
[2] = target: T1, Programmed cell death protein 1/Programmed cell death 1 ligand 1 (Homo sapiens, UniProt Q9NZQ7); assay: Inhibition of PD-1/PD-L1 interaction (unknown origin) incubated for 15 min by HTRF assay; format: protein-complex assay
T1 sequence (Q15116 whole entry): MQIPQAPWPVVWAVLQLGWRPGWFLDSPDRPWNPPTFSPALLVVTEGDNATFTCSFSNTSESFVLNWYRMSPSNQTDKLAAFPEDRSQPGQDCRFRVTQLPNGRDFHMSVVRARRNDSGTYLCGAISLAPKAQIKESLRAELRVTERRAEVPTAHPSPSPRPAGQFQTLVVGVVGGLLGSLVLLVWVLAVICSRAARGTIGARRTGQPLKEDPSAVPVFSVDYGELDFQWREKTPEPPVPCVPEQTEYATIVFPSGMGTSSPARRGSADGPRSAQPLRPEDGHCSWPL
T1 sequence (Q9NZQ7 whole entry): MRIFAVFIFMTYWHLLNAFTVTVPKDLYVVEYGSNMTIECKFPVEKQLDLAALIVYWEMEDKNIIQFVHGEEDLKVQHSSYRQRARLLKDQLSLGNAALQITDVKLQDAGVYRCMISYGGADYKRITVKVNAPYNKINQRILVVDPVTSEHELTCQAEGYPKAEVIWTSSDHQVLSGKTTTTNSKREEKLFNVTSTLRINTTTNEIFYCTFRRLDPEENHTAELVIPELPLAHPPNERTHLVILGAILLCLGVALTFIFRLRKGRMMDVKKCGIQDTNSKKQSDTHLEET

[3] = target: Programmed cell death protein 1 (Homo sapiens) (UniProt Q15116); assay: Inhibition of human PD-1 expressed in Jurkat T cells co-transfected with NFAT by automated microplate spectrophotometer analysis; format: cell-based
Sequence of Programmed cell death protein 1 (Homo sapiens) (Q15116 whole entry): as the sequence (Q15116 whole entry) above

[4] = target: Programmed cell death 1 ligand 1 (Homo sapiens, UniProt Q9NZQ7); assay: Binding affinity to his-tagged human PD-L1 assessed as dissociation constant by SPR analysis
Sequence of Programmed cell death 1 ligand 1 (Homo sapiens, UniProt Q9NZQ7) (Q9NZQ7 whole entry): as the sequence (Q9NZQ7 whole entry) above

Jurkat = assay: Cytotoxicity against human Jurkat cells expressing PD-1 assessed as reduction in cell viability at 50 uM incubated for 6 hrs by CCK-8 assay; format: functional, cell-based
[5] = target: T2, Programmed cell death protein 1/Programmed cell death 1 ligand 1 (Homo sapiens, UniProt Q15116+Q9NZQ7); assay: Inhibition of interaction of human PD-1 expressed in Jurkat T cells co-transfected with NFAT/human PD-L1 expressed in CHO-K1 cells co-expressing aAPC assessed as maximum relative light unit preincubated with CHO-K1 cells followed by Jurkat cell addition and measured after 6 hrs by automated microplate spectrophotometer analysis; format: cell-based
T2 sequence (Q15116 whole entry): as the sequence (Q15116 whole entry) above
T2 sequence (Q9NZQ7 whole entry): as the sequence (Q9NZQ7 whole entry) above

[6] = target: T1, Programmed cell death protein 1/Programmed cell death 1 ligand 1; assay: (§1) Inhibition of interaction of human PD-1 expressed in Jurkat T cells co-transfected with NFAT/human PD-L1 expressed in CHO-K1 cells co-expressing aAPC preincubated with CHO-K1 cells followed by Jurkat cell addition and measured after 6 hrs by automated microplate spectrophotometer analysis; format: cell-based
CHO-K1 [7] = assay: Induction of PD-L1 internalization in CHO-K1 cells assessed as increase in PD-L1 concentration in nucleus at 10 uM incubated for 12 hrs by DIL-staining based confocal microscopic analysis analysis; format: functional, cell-based; details: Cricetulus griseus
PBMC [8] = assay: Induction of antitumor immunity in human PBMC cells expressing PD-L1 assessed as increase in IL-2 expression incubated for 12 hrs by ELISA analysis; format: functional, cell-based; details: dose 0.1-10 µM
[9] = Stability in human liver microsomes assessed as half life; format: ADME, Microsome
[10] = Half life in Sprague-Dawley rat at 50 mg/kg, po measured upto 24 hrs by LC-MS/MS analysis; format: ADME, organism-based; details: in vivo
CHO-K1 [11] = assay: Induction of PD-L1 internalization in CHO-K1 cells assessed as increase in PD-L1 concentration in cytoplasm at 10 uM incubated for 12 hrs by DIL-staining based confocal microscopic analysis analysis; format: functional, cell-based; details: Cricetulus griseus
[12] = target: Programmed cell death 1 ligand 1 (Mus musculus, UniProt Q9EP73); assay: Binding affinity to his-tagged mouse PD-L1 assessed as dissociation constant by SPR analysis
Sequence of Programmed cell death 1 ligand 1 (Mus musculus, UniProt Q9EP73) (Q9EP73 whole entry): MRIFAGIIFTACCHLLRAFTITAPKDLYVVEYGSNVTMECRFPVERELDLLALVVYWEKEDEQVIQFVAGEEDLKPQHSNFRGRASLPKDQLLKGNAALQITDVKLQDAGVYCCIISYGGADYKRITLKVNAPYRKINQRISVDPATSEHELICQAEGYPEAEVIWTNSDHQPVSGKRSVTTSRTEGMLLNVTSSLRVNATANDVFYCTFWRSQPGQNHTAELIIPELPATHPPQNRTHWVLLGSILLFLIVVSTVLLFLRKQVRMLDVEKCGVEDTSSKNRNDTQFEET

CHO-K1 [13] = assay: Reduction in cell surface PD-L1 expression in CHO-K1 cells expressing aAPC at 10 uM incubated for 24 hrs by immunofluorescence based microscopic analysis; format: functional; details: Cricetulus griseus
[14] = Mutagenicity in Salmonella typhimurium TA98 by mini-Ames test; format: toxicity; details: salmonella enterica subsp. enterica serovar typhimurium
[15] = Tmax in Sprague-Dawley rat at 50 mg/kg, po measured upto 24 hrs by LC-MS/MS analysis; format: ADME, organism-based; details: in vivo
[16] = Mutagenicity in Salmonella typhimurium TA100 by mini-Ames test; format: toxicity; details: salmonella enterica subsp. enterica serovar typhimurium
[17] = Cmax in Sprague-Dawley rat at 50 mg/kg, po measured upto 24 hrs by LC-MS/MS analysis; format: ADME, organism-based; details: in vivo
PBMC [18] = assay: Induction of antitumor immunity in human PBMC cells expressing PD-L1 assessed as increase in IFN-gamma expression incubated for 12 hrs by ELISA analysis; format: functional, cell-based; details: dose 0.1-10 µM
MC-38 [19] = assay: Cytotoxicity against mouse MC38 cells assessed as effect on cell viability at 0.07 to 150 uM incubated for 48 hrs by CCK-8 assay; format: functional, cell-based; details: dose 0.07-150 µM
[20] = Water solubility of the compound; format: physicochemical
[21] = Lipophilicity, log D of the compound at pH 7.4; format: physicochemical; details: buffer
[22] = AUC (0 to t) in Sprague-Dawley rat at 50 mg/kg, po measured upto 24 hrs by LC-MS/MS analysis; format: ADME, organism-based; details: in vivo
CHO-K1 [23] = assay: Reduction in cell surface PD-L1 expression in CHO-K1 cells expressing aAPC incubated for 24 hrs by flow cytometry analysis; format: functional, cell-based; details: Cricetulus griseus, dose 0.1-10 µM
CT26 = assay: Cytotoxicity against mouse CT26 cells assessed as effect on cell viability at 0.07 to 150 uM incubated for 48 hrs by CCK-8 assay; format: functional, cell-based; details: dose 0.07-150 µM
PBMC [24] = assay: Induction of antitumor immunity in human PBMC cells assessed as increase in IFN-gamma expression at 0.1 to 10 uM incubated for 12 hrs by ELISA analysis; format: functional, cell-based; details: dose 0.1-10 µM
[25] = target: Voltage-gated inwardly rectifying potassium channel KCNH2 (Homo sapiens, UniProt Q12809); assay: Inhibition of hERG upto 30 uM; format: toxicity
Sequence of Voltage-gated inwardly rectifying potassium channel KCNH2 (Q12809 whole entry): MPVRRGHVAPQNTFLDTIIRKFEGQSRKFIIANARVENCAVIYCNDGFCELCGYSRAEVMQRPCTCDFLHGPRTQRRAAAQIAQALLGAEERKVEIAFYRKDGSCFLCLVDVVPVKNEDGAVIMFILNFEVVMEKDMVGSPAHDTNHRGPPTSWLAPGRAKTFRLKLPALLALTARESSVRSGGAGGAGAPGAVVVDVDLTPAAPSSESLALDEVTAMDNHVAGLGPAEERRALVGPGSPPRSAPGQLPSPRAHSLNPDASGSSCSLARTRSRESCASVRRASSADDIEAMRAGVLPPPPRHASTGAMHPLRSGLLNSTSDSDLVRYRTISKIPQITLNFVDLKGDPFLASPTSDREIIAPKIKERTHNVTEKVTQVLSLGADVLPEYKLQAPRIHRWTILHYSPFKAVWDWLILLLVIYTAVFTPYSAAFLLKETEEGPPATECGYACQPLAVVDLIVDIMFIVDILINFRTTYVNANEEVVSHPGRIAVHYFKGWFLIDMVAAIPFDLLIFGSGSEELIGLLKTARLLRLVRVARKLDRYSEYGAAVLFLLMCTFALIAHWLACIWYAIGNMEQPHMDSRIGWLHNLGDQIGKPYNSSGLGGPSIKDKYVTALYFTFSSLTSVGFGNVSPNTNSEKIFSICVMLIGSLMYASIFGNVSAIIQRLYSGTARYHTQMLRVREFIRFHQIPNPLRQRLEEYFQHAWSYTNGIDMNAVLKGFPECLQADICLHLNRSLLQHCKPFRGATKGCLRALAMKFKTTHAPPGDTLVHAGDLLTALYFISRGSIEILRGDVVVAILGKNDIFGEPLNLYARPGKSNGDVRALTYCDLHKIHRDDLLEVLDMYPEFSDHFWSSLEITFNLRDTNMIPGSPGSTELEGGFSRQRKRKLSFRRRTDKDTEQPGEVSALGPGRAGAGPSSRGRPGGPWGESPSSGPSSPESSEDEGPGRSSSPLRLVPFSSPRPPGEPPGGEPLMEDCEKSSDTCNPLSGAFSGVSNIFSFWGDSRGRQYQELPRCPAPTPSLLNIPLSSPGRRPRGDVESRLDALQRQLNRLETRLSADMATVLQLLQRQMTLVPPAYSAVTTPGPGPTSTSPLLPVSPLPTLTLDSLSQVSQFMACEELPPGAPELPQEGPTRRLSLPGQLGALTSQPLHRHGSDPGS

MC-38 [26] = assay: Antitumor activity against mouse MC38 cells implanted in C57BL/6J mouse assessed as tumor growth inhibition at 5 mg/kg, po measured for 20 days; format: functional; details: MC-38, 480 h, time 20 day, read-out: TGI
[27] = target: T2, Programmed cell death protein 1/Programmed cell death 1 ligand 1; assay: as §1; format: cell-based; details: cho-k1

O=C(O)[C@@H](CO)NCc1cc(Cl)c(OCc2cccc(-c3ccccc3)c2Br)cc1OCc1ccc2nonc2c1 [listing 1 of 3 here]
Activity (CHO-K1 [1]): Non-Toxic

O=C(O)[C@@H](CO)NCc1cc(Cl)c(OCc2cccc(-c3cccc(OCCCCN4CCNCC4)c3)c2Cl)cc1OCc1ccc2nonc2c1
IC50 [2]: 42.1 nM

O=C(O)[C@@H](CO)NCc1cc(Cl)c(OCc2cccc(-c3cccc(OCCCCN(CCO)CCO)c3)c2Cl)cc1OCc1ccc2nonc2c1
IC50 [2]: 8.2 nM

O=C(O)[C@@H](CO)NCc1cc(Cl)c(OCc2cccc(-c3cccc(OCCCCN4CCOCC4)c3)c2F)cc1OCc1ccc2nonc2c1
IC50 [2]: 21.2 nM

O=C(O)[C@@H](CO)NCc1cc(Cl)c(OCc2cccc(-c3cccc(OCCCN(CCO)CCO)c3)c2Cl)cc1OCc1ccc2nonc2c1
inhibition [3]: inactive | Kd [4]: 34.1 nM | Activity (Jurkat): Active | IC50 [2]: 5.4 nM | Activity (CHO-K1 [1]): Non-Toxic | Activity [5]: 2 RLU | EC50 [6]: 353 nM

O=C(O)[C@@H](CO)NCc1cc(Cl)c(OCc2cccc(-c3cccc(OCCCNCCO)c3)c2Cl)cc1OCc1ccc2nonc2c1
IC50 [2]: 6.1 nM

O=C(O)[C@@H](CO)NCc1cc(Cl)c(OCc2cccc(-c3cccc(OCCCCN4CCC(O)CC4)c3)c2Cl)cc1OCc1ccc2nonc2c1
IC50 [2]: 3.3 nM

O=C(O)[C@@H](CO)NCc1cc(Cl)c(OCc2cccc(-c3cccc(OCCCNCCN4CCCCC4)c3)c2Cl)cc1OCc1ccc2nonc2c1
IC50 [2]: 23.8 nM

O=C(O)[C@@H](CO)NCc1cc(Cl)c(OCc2cccc(-c3ccccc3)c2Br)cc1OCc1ccc2nonc2c1 [listing 2 of 3 here]
inhibition [3]: inactive | Activity (Jurkat): Active | Activity [5]: 1.8 RLU

O=C(O)[C@@H](CO)NCc1cc(Cl)c(OCc2cccc(-c3cccc(OCCCN4CCC(O)CC4)c3)c2F)cc1OCc1ccc2nonc2c1
inhibition [3]: inactive | Activity (CHO-K1 [7]): Active | Kd [4]: 2 nM | Activity (PBMC [8]): Dose-Dependent Effect | half-life [9]: 1.95 h | half-life [10]: 5.3 h | Activity (CHO-K1 [11]): Active | Kd [12]: 31.8 nM | Activity (CHO-K1 [13]): Active | Activity (Jurkat): Active | Activity [14]: Non-Toxic | Tmax [15]: 6 min | Activity [16]: Non-Toxic | Cmax [17]: 45.6 ng/mL | IC50 [2]: 13 nM | Activity (CHO-K1 [1]): Non-Toxic | Activity (PBMC [18]): Dose-Dependent Effect | Activity (MC-38 [19]): inactive | solubility [20]: 23.6 µM (≈ 17.4 µg/mL) | Activity [5]: 2.3 RLU | logD [21]: 0.67 | AUC(0-t) at 24 h [22]: 82.1 ng·h/mL | Activity (CHO-K1 [23]): Dose-Dependent Effect | EC50 [6]: 153 nM | Activity (CT26): inactive | Activity (PBMC [24]): inactive | inhibition (INH) [25]: Not Active

O=C(O)[C@@H](CO)NCc1cc(Cl)c(OCc2cccc(-c3cccc(OCCN4CCOCC4)c3)c2Cl)cc1OCc1ccc2nonc2c1
IC50 [2]: 121 nM

O=C(O)[C@@H](CO)NCc1cc(Cl)c(OCc2cccc(-c3ccccc3)c2Br)cc1OCc1ccc2nonc2c1 [listing 3 of 3 here]
inhibition in vivo at 5 mg/kg (MC-38 [26]): 52.5%

O=C(O)[C@@H](CO)NCc1cc(Cl)c(OCc2cccc(-c3cccc(OCCN4CCC(O)CC4)c3)c2Cl)cc1OCc1ccc2nonc2c1
IC50 [2]: 40.5 nM

O=C(O)[C@@H](CO)NCc1cc(Cl)c(OCc2cccc(-c3cccc(OCCCNS(=O)(=O)N4CCOCC4)c3)c2Cl)cc1OCc1ccc2nonc2c1
IC50 [2]: 87.6 nM

O=C(O)[C@@H](CO)NCc1cc(Cl)c(OCc2cccc(-c3cccc(OCCCN4CCOCC4)c3)c2Cl)cc1OCc1ccc2nonc2c1
IC50 [2]: 34.7 nM

O=C(O)[C@@H](CO)NCc1cc(Cl)c(OCc2cccc(-c3cccc(OCCCCN4CCC(CO)CC4)c3)c2Cl)cc1OCc1ccc2nonc2c1
IC50 [2]: 3.5 nM

O=C(O)[C@@H](CO)NCc1cc(Cl)c(OCc2cccc(-c3cccc(OCCCCN4CCC(O)CC4)c3)c2F)cc1OCc1ccc2nonc2c1
IC50 [2]: 3.1 nM

O=C(O)[C@@H](CO)NCc1cc(Cl)c(OCc2cccc(-c3cccc(OCCCN4CCC(O)CC4)c3)c2Cl)cc1OCc1ccc2nonc2c1
inhibition [3]: inactive | Kd [4]: 22.9 nM | Activity (Jurkat): Active | IC50 [2]: 2.02 nM | Activity (CHO-K1 [1]): Non-Toxic | Activity [5]: 2.2 RLU | EC50 [6]: 158 nM

O=C(O)C1CCN(CCCCOc2cccc(-c3cccc(COc4cc(OCc5ccc6nonc6c5)c(CN[C@H](CO)C(=O)O)cc4Cl)c3Cl)c2)CC1
IC50 [2]: 8.8 nM

CCN(CC)CCCOc1cccc(-c2cccc(COc3cc(OCc4ccc5nonc5c4)c(CN[C@H](CO)C(=O)O)cc3Cl)c2Cl)c1
IC50 [2]: 78.3 nM

O=C(O)[C@@H](CO)NCc1cc(Cl)c(OCc2cccc(-c3cccc(OCCN(CCO)CCO)c3)c2Cl)cc1OCc1ccc2nonc2c1
IC50 [2]: 109 nM

O=C(O)[C@@H](CO)NCc1cc(Cl)c(OCc2cccc(-c3cccc(OCCCN4CCOCC4)c3)c2F)cc1OCc1ccc2nonc2c1
IC50 [2]: 12.5 nM

CCN(CC)C(=O)CCOc1cccc(-c2cccc(COc3cc(OCc4ccc5nonc5c4)c(CN[C@H](CO)C(=O)O)cc3Cl)c2Cl)c1
Activity (Jurkat): Active | IC50 [2]: 187 nM | Activity (CHO-K1 [1]): Non-Toxic | EC50 [27]: Not Active

COP(=O)(NCCCOc1cccc(-c2cccc(COc3cc(OCc4ccc5nonc5c4)c(CN[C@H](CO)C(=O)O)cc3Cl)c2Cl)c1)OC
IC50 [2]: 746 nM
